Experimental findings from US20170182047A9, “Post-Translational Regulation of Catalytic Activities of Cytochrome P450 46A1 and Uses Thereof” (The Board of Regents of the University of Texas System, priority 2007, published 2017) are described below.

Data set [1] concerns genes involved in cholesterol homeostasis. The experiment in a line: mRNA expression in mouse brain after voriconazole. The conditions noted are these: 5 daily i.p. injections 60 mg/kg. The data set is classed as in vivo, C57/B6 J mice. The method, then: (§1) The mice were sacrificed by cervical dislocation.
Total RNA was obtained from brain and liver tissue using Trizol (Invitrogen, Carlsbad, Calif.). cDNA was synthesised from 2 μg of total RNA using Capacity cDNA ReverseTranscription Kit (Applied Biosystems, Foster City, Calif.). Steady-state mRNA levels were estimated using Taqman probes (primer sequences available on request). All assays were run on an ABI Prism 7000 Sequense Detection System (Applied Biosystems; Foster City, Calif.). Estimation of a relative gene expression was performed using the comparative threshold cycle method, using hypoxathine-guanine phosphoribosyl transferase as endogenous control.

The nature of data set [2]: Brain levels of voriconazole. In kind it is in vivo, C57/B6 J mice. The conditions noted are these: after 5 daily intraperitoneal injections (60 mg/kg body weight). The method, then:
as §1
Voriconazole was determined in serum and brain homogenates after the extraction with chloroform/methanol (2:1, v:v) and ethanol (10%, v/v, final), respectively. Voriconazole extract (100 μL) was then mixed with 200 μL acetonitrile, centrifuged at 10,000 g for 10 min, and 1 μL of the supernatant injected onto a Phenomenex Luna C18 3 μm column (100×2 mm) connected to the Agilent 1100 liquid chromatography-mass spectrometry system with an autosampler and solvent degasser. Gradient elution was with initial 35% B increasing to 100% B in 5 min (A=1% acetonitrile with 25 mM formic acid; B=100% acetonitrile with 25 mM formic acid). A structure analogue (UK115794, Pfizer Ltd) was used as internal standard. Ions were monitored in a positive mode at m/z 350 (voriconazole) and m/z 348 (internal standard).

For `C[C@@H](c1ncncc1F)[C@](O)(Cn1cncn1)c1ccc(F)cc1F` [voriconazole], in data set [1], the “effect on HMG CoA reductase mRNA levels” value is on record as “significant suppressive effect”, the “effect on expression of CYP46A1 mRNA” value is “no significant effect” and the “effect on expression of HMG CoA synthase mRNA” value is “no significant effect”. The “level of voriconazole in the brain” value in data set [2] is on record as 43+8 μg/g wet weight. Further, the concentration at 5 days in data set [2] (male, C57/B6 J, mouse, brain, read-out: level of voriconazole in the brain) stood at 123 µM.
